Laboratory results: US20190125735A1, “INHIBITION OF P38 MAPK FOR THE TREATMENT OF CANCER” (Board of Regents, The University of Texas System, priority 2015, published 2019)
Like-named read-outs stand apart in the source and are kept apart here. Where a SMILES comes first, the peptide text is derived from it. The star is where a group is joined. Cbz = O=C(OCc1ccccc1)*

What was measured:
[1] = system: BCR-ABL+ mouse ALL cells seeded on MSCs (OP9 cells); assay: Clinical compound library screen, imatinib-pretreated MSC / BCR-ABL+ ALL cell co-culture; format: cell-based
Protocol: The effectiveness of the compounds was determined in preventing cluster formation by microscopy and the toxicity of the compounds by bioluminescence imaging of co-cultured MSCs and leukemic cells.
The clinical compounds library was purchased from the John S. Dunn Gulf Coast Consortium for Chemical Genomics (Houston, Tex.). […] Then, luciferase-labeled BCR-ABL+ mouse ALL cells were seeded on to the MSCs. Treatment was continued for 1 day, and the samples were evaluated via phase-contrast microscopy for the formation of leukemic cell clusters underneath the pretreated MSCs. To determine the compounds' toxicity in MSCs or leukemic cells, we examined the MSC/ALL cell co-cultures via microscopy and/or bioluminescence imaging.
Phase-contrast images of co-cultured MSCs and ALL cells were obtained using an Axio Observer.Z1 microscope, an AxioCam MR camera, and AxioVision software (Zeiss, Oberkochen, Germany). For screening, a cluster was defined as a group of more than five leukemic cells under the MSCs. The total number of leukemic cell clusters was the average number of clusters from three different fields (10× objective). For post-screening experiments, a cluster was defined as a group of more than 10 leukemic cells under the MSCs. The total number of leukemic cell clusters was the average number of clusters from 10 different fields (10× objective).

[2] = system: LNCaP cells; assay: MTS cell survival assay, LNCaP cells over-expressing FOXC2; format: cell-based, human; details: LNCaP cells with FOXC2 expression
Text: Since FOXC2 is induced downstream of several different EMT inducers, and is by itself capable of potentiating the effects of multiple independent EMT signals (Taube et al., 2010), it was queried how ectopic expression of FOXC2 would impact the behavior of epithelial-like LNCaP cells, which are androgen-dependent. […] Again, FOXC2-induced EMT was associated with a reduction in PSA-promoter activity (as determined by loss in GFP) (FIG. 3A-lower panel), as well as loss in AR expression (FIGS. 3B,C).
(§1) Immunoblotting, Immunofluorescence, RTPCR, wound healing- and tumorsphere assays were performed as previously described (Sarkar et al., 2015). Cell viability (MTS) was assessed using the CellTiter96 Aqueous One-Solution Cell Proliferation Assay kit (Promega).

[3] = system: DU145 cells; assay: MTS cell survival assay, DU145 cells; format: cell-based, human
Protocol: as §1

[4] = system: DU145 cells; details: parental DU145 cells, even at 10 μM; cited from earlier work
[5] = system: DU145 cells; assay: DU145 subcutaneous tumors in NOD/SCID mice; format: in vivo; details: subcutaneous dosing 5 days/week; SB203580 0.2 μmols per mouse, Enzalutamide 10 mg/kg; vs vehicle
Protocol: To investigate the effect of inhibition of FOXC2-dependent EMT/CSC attributes on tumor formation in vivo, NOD/SCID mice were subcutaneously injected with DU145 cells and began treatment in vivo, after formation of palpable tumors.
Immediately after sacrificing the mice, ˜100 μl blood was isolated via venipuncture in EDTA-treated collection tubes and stored on ice. Within 30 minutes, the blood was spun down at 1200 rpm for 5 minutes, and the pellet resuspended in 1 ml ACK-lysing buffer (Life Tech) and further incubated for 3-5 minutes. Cells were washed once with PBS, resuspended in RPMI with 10% FBS and pen/strep, and cultured on 10 cm tissue culture dishes. RFP-positive colonies (originating from the labeled DU145 cells injected into mice) were counted after 3-4 days in culture and quantified.
˜4 week-old male NOD.CB17-Prkdcscid/J mice were purchased from the Jackson Laboratory (Maine, USA). […] Once palpable tumors were discernable, tumor-bearing mice were randomly segregated into 4 groups, and drug treatment was initiated every 24 hours for 5 days/week. […] Investigators were blinded to the group allocation while assessing experimental outcomes. At the end of the treatment period, tumors were excised, average diameter calculated using calipers, and tumor weight noted. […]

[6] = system: DU145 cells; assay: Morphology and marker expression (qRTPCR, immunoblotting, IF) in DU145 cells; format: cell-based, human; details: DU145, LY364947 1 μM
Protocol: (§2) Cell lines: Authenticated LNCaP, DU145, and PC3 cells were procured from ATCC and cultured in RPMI with 10% fetal bovine serum (FBS) with penicillin/streptomycin. Cells overexpressing EMT transcription factors and shRNA were also cultured in the same media. HEK293T cells were cultured in DMEM with 10% FBS and penicillin/streptomycin. All cell lines used for this study were recently confirmed negative for mycoplasma contamination.
as §1

[7] = system: DU145 cells; assay: Tumorsphere assay, DU145 cells; format: cell-based, human; details: DU145, LY364947 1 μM
Protocol: as §2, §1

[8] = system: SUM159 cells; assay: Sphere formation in ultra-low attachment plates, SUM159 cells; format: cell-based; details: Homo sapiens, cultured 7-10 days, read-out: Concentration of the drug that induced 50% reduction in sphere formation
Protocol: (§3) (A) HMLER-Snail cells were treated with various p38 inhibitors. Cells were seeded in ultra-low attachment plates and cultured for 7-10 days. Spheres with a diameter greater than […] were counted. The data are reported as the number of spheres formed/1000 seeded cells±SEM. […] (B) SUM159 cells were treated with various p38 inhibitors. Cells were seeded in ultra-low attachment plates and cultured for 7-10 days. Spheres with a diameter greater than 75 μm were counted. The data are reported as the number of spheres formed/1000 seeded cells±SEM. […] (C) HMLE-Snail cells were treated with various p38 inhibitors. Cells were seeded in ultra-low attachment plates and cultured for 7-10 days. Spheres with a diameter greater than 75 μm were counted. The data are reported as the number of spheres formed/1000 seeded cells±SEM. […] (D) Western blots of HMLER-Snail cell treatment with various p38 inhibitors on Day 2 of treatment.

[9] = system: HMLER-Snail cells; assay: Sphere formation in ultra-low attachment plates, HMLER-Snail cells; format: cell-based; details: Homo sapiens, cultured 7-10 days, spheres >75 μm, read-out: Concentration of the drug that induced 50% reduction in sphere formation
Protocol: as §3

[10] = system: HMLE-Snail cells; assay: Sphere formation in ultra-low attachment plates, HMLE-Snail cells; format: cell-based, human; details: cultured 7-10 days; for IC50: Homo sapiens, read-out: Concentration of the drug that induced 50% reduction in sphere formation
Protocol: as §3

[11] = system: FOXC2; assay: FOXC2 protein levels by immunoblotting in mammary cell lines; format: cell-based, human; details: pre-treatment with 10 μM MG132
Protocol: Immortalized human mammary epithelial (HMLE) cells expressing empty vector (pWZL), Snail, Twist, Goosecoid (GSC), or an activated form of TGFβ1, V12H-Ras-transformed HMLE (HMLER) and HMLER-FOXC2 cells were maintained as previously described (Elenbaas et al., 2001) For 4-hydroxy-tamoxifen (4-OHT) treatment, HMLE-Snail-ER or HMLE-Twist-ER cells were exposed to 20 nM 4-OHT for the indicated number of days. MCF7, MDA-MB-231 and SUM159 human breast cancer cells and the 4T1 mouse mammary carcinoma cells were cultured as described. Human non-tumorigenic MCF10A cells were cultured as described (Hollier et al., 2013), and treated with 2.5 ng/ml TGFβ1 for 3 days to elicit EMT.
Immunoblotting and immunofluorescence (Mani et al., 2008) were performed as previously described. Primary antibodies were as follows: β-actin (Sigma, St Louis, Mo., USA; A3853), mouse anti-human FOXC2 (Dr. Naoyuki Miura, Hamamatsu University School of Medicine, Japan), goat polyclonal anti-FOXC2 (Santa Cruz Biotechnology, Dallas, Tex., USA; sc-21397), p-p38 (Cell Signaling, Danvers, Mass., USA; 4511), p38 (Cell Signaling; 9211), E-cadherin (BD Biosciences, San Jose, Calif., USA; 61081), fibronectin (BD Biosciences; 610077), vimentin (Novus Biologicals, Littleton, Colo., USA; NB200-623), ZEB1 (Novus Biologicals; NBP1-05987), and HA (Covance, Princeton, N.J., USA; MMS-101P).

[12] = system: FOXC2 protein; assay: Western blots of FOXC2 protein in HMLER-Snail cells; format: cell-based; details: Homo sapiens, 48 h, Day 2 of treatment, read-out: Concentration of the drug that induced 50% reduction in FOXC2 protein
Protocol: as §3

[13] = system: MSCs
Protocol: MSCs were supplemented with 10% serum, and the treatment was continued for 30 minutes. Protein lysates from MSCs treated under the indicated conditions were subjected to immunoblot analysis. α-tubulin was used as a loading control. […] Data are shown as means±standard error of the mean.
MSCs were subjected to lysis in the extraction buffer (Tris-HCl [pH 7.5, 50 mM]; sodium chloride [50 mM]; dithiothreitol [1 mM]; ethylenediaminetetraacetic acid [2 mM]; 1% NP-40; 0.1% sodium deoxycholate; and 0.1% sodium dodecyl sulfate) supplemented with protease and phosphatase inhibitors (Roche, Basel, Switzerland). Protein concentration in the lysates was measured by a protein assay reagent (Bio-Rad Laboratories, Hercules, Calif.). […] The blots were then incubated with anti-rabbit secondary antibodies conjugated with horseradish peroxidase (1:3000 dilution in PBS with 0.2% Tween 20 and 1% nonfat milk powder; Sigma-Aldrich, St. Louis, Mo.), and bands were detected with a chemiluminescence detection system (Pierce Biotechnology, Rockford, Ill.).

[14] = imatinib 5 μM + compound 6.6 μM (dexamethasone 50 nM), 3 days pretreatment + 1 day

SMILES: CNCc1ccc(-c2[nH]c3cc(F)cc4c3c2CCNC4=O)cc1 [AG014699]
- Imatinib-induced leukemic cell cluster formation [1, 14]: eliminated the leukemic cell clusters by eliciting toxicity toward clustered leukemic cells

SMILES: O=C(c1cc(Cc2n[nH]c(=O)c3ccccc23)ccc1F)N1CCN(C(=O)C2CC2)CC1 [AZD2281]
- Imatinib-induced leukemic cell cluster formation [1, 14]: eliminated the leukemic cell clusters by eliciting toxicity toward clustered leukemic cells

SMILES: CN1CCN(c2ccc3nc(-c4c(N)c5c(F)cccc5[nH]c4=O)[nH]c3c2)CC1 [CHIR258]
- Imatinib-induced leukemic cell cluster formation [1]: eliminated the leukemic cell clusters by eliciting toxicity toward clustered leukemic cells

SMILES: Cc1c[nH]c(-c2cnc(NCCNc3ccc(C#N)cn3)nc2-c2ccc(Cl)cc2Cl)n1 [CHIR99021]
- Imatinib-induced leukemic cell cluster formation [1, 14]: directly prevented imatinib-induced leukemic cell cluster formation

SMILES: COc1cc2c(cc1OC)[C@@H]1C(=O)c3ccc4c(c3O[C@@H]1CO2)C=CC(C)(C)O4 [DEGUELIN]
- Imatinib-induced leukemic cell cluster formation [1, 14]: directly prevented imatinib-induced leukemic cell cluster formation

SMILES: CC(=O)O[C@@]12CO[C@@H]1C[C@H](O)[C@@]1(C)C(=O)[C@H](O)C3=C(C)[C@@H](OC(=O)[C@H](O)[C@@H](NC(=O)OC(C)(C)C)c4ccccc4)C[C@@](O)([C@@H](OC(=O)c4ccccc4)[C@H]21)C3(C)C [Docetaxel]
- Resistance of cells to the drug (cell survival) [2]: increasingly resistant
- Susceptibility of cells to the drug (cell survival) ([3]; DU145 with loss of FOXC2 expression, 100 nM Docetaxel): more susceptible

SMILES: CNC(=O)c1ccc(N2C(=S)N(c3ccc(C#N)c(C(F)(F)F)c3)C(=O)C2(C)C)cc1F [Enzalutamide]
- Resistance of cells to the drug (cell survival) [2]: increasingly resistant
- Sensitivity of cells to the drug [4]: insensitive
- Sensitivity of cells to the drug (cell survival) ([3]; DU145 with FOXC2 suppression, 100 nM Enzalutamide): more sensitive
- Tumor size (volume and weight) [5]: no appreciable change in tumor size

SMILES: c1ccc(-c2[nH]ncc2-c2ccnc3ccccc23)nc1 [LY364947]
- FOXC2 expression and p38 signaling [6]: concomitant loss in FOXC2 expression and p38 signaling
- Tumorsphere-forming capacity [7]: markedly reduced tumorsphere-forming capacity

SMILES: CC(C)(C)Cn1c(N)nc2ccc(-c3[nH]c(C(C)(C)C)nc3-c3ccc(F)cc3)nc21 [LY2228820]
- IC50 [8]: 0.3 µM
- IC50 [9]: 0.01 µM
- IC50 [10]: 3 µM

SMILES: CC(C)C[C@@H](C=O)NC(=O)[C@H](CC(C)C)NC(=O)[C@H](CC(C)C)NC(=O)OCc1ccccc1 [MG132] (Cbz-Leu-Leu-Leu-aldehyde)
- Proteolytic degradation of FOXC2 following SB203580 treatment [11]: rescued the proteolytic degradation of FOXC2

SMILES: CNC(=O)c1ccc(C)c(-n2c(C)cc(OCc3ccc(F)cc3F)c(Br)c2=O)c1 [PH797804]
- IC50 [8]: 0.1 µM
- IC50 [9]: 0.01 µM
- IC50 [12]: 0.05 µM
- IC50 [10]: 0.3 µM

SMILES: Cc1ccc([N+](=O)[O-])cc1S(=O)(=O)N(C)/N=C/c1cnc2ccc(Br)cn12 [PIK75]
- Imatinib-induced leukemic cell cluster formation [1, 14]: eliminated the leukemic cell clusters by eliciting toxicity toward clustered leukemic cells

SMILES: Oc1ccc(-c2nc(-c3ccc(F)cc3)c(-c3ccncc3)[nH]2)cc1 [SB202190, 4-(4-fluorophenyl)-2-(4-hydroxyphenyl)-5-(4-pyridyl)-1H-imidazole]
- Imatinib-induced leukemic cell cluster formation [1, 14]: directly prevented imatinib-induced leukemic cell cluster formation

SMILES: O=C1NC(=O)c2c1c1c3ccccc3n3c1c1c2c2ccccc2n1C1CCC3O1 [SB218078]
- Imatinib-induced leukemic cell cluster formation [1, 14]: directly prevented imatinib-induced leukemic cell cluster formation

SMILES: NC(=O)c1ccc(N(C(N)=O)c2c(F)cccc2F)nc1-c1ccc(F)cc1F [VX-702]
- IC50 [8]: 50 µM
- IC50 [9]: 50 µM
- Imatinib-induced leukemic cell cluster formation [1, 14]: directly prevented imatinib-induced leukemic cell cluster formation
- Inhibition of sphere formation [10]: did not inhibit sphere formation

SMILES: C[C@@H](N)[C@H]1CC[C@H](C(=O)Nc2ccncc2)CC1 [Y-27632]
- Imatinib-induced leukemic cell cluster formation [1, 14]: directly prevented imatinib-induced leukemic cell cluster formation

SMILES: Cc1ccc(NC(=O)c2ccc(CN3CCN(C)CC3)cc2)cc1Nc1nccc(-c2cccnc2)n1 [imatinib]
- Phosphorylation of PDGFR-α/β [13]: reduced phosphorylation of PDGFR-α/β
- Phosphorylation of ATF2 ([13]; vs control): higher phosphorylation of ATF2 than control
